Measurements reported in article PMC11251039, “Harnessing cholesterol uptake of malaria parasites for therapeutic applications” (EMBO Molecular Medicine, 2024).
Where “and” joins values, the source holds several entries; their conditions need not be identical. Equal values may be shown once. Read-outs that look alike come from different tables or passages of the source.

System: asexual P. falciparum 3D7 wild-type parasites
Experiment: P. falciparum asexual growth inhibition assay (SYBR Safe DNA replication)
Type: cell-based, Plasmodium falciparum
Parameters: Figure 5B dose-response source data (growth, replicate values): unit not given here
Method: P. falciparum asexual parasite assays commenced with ring-stage parasites at 1% parasitaemia and 1% haematocrit. 200 nM chloroquine (Sigma C6628) or artesunate (Sigma A3731) was used as a no-growth control. DNA replication (indicating growth) was measured at the specified time using SYBR Safe DNA Gel Stain (Invitrogen 33102) and a fluorescence microplate reader (Smilkstein et al, [2004]; Spry et al, [2013]). […]
Growth and Viability Inhibition Assays:
Plasmodium falciparum Growth Inhibition Assays:
P. falciparum parasites were maintained under routine culture conditions in red blood cells and RPMI 1640-Hepes with Glutamax, supplemented with 10 mM D-glucose, 480 μM hypoxanthine, 20 μg/mL gentamicin, 0.375% (w/v) AlbuMAXTM II (Thermo Fisher 11021029), and 2.5% v/v heat-inactivated human serum (17). Cultures were maintained at 37 °C […]
wildtype parasites except for the ring stage survival assay, as specified. Cultures were synchronised with 5% w/v D-sorbitol (18).
Growth inhibition was investigated according to methods described by Smilkstein et al. (19) with modifications by Spry et al. (20). Compounds or solvent controls (DMSO, ethanol, or ethyl acetate) were serially diluted 2-fold across flat-bottom 96-well plates. Culture media without compound was used as a negative control. 200 nM chloroquine (Sigma C6628) or artesunate (Sigma A3731) was used as a positive control to determine background fluorescence. The parasitaemia of a culture containing predominantly ring stage parasites was counted by Giemsa smear. The parasitaemia was adjusted to 1% by addition of fresh uRBCs and added to the plate at a final haematocrit of 1%, with 200 µL per well. The plates were incubated at 37 °C under humid microaerophilic conditions. After 24, 48, or 72 hours, the plates were transferred to a -18 °C freezer to stop the assay and lyse cells. Plates were thawed and lysate was mixed 1:1 with SYBR Safe DNA Gel Stain (Invitrogen 33102) (final concentration 1/10,000) diluted in lysis buffer (20 mM TRIS, 5 mM EDTA, 0.008% w/v Saponin, 0.08% w/v Triton-X 100, pH 7.5). Fluorescence was detected at 490 nm excitation/ 520 nm emission on a FLUOstar Optima fluorescence plate reader (BMG Labtech).

[1] = Plasmodium falciparum, 3D7, 72 h; read-out: IC50, P. falciparum asexual growth inhibition
[2] = Plasmodium falciparum, 3D7; 24 h, starting at ring stages; read-out: IC50, P. falciparum asexual growth inhibition

## COc1cc(NC(C)CCCNC(=O)CCC(=O)O[C@H]2CC[C@@]3(C)C(=CC[C@H]4[C@@H]5CC[C@H]([C@H](C)CCCC(C)C)[C@@]5(C)CC[C@@H]43)C2)c2ncccc2c1 (some centres unmarked) [C-3-PQ]
0.390625000 uM, 24 h, replicate values, source data Fig. 2B; listed as BC64C
  P. falciparum asexual growth, percentage of control: 131.7% and 66.76% and 95.56% and 108.4% and 112% and 85% and 101.8% and 112.2% and 92.84%
0.781250000 uM, 24 h, replicate values, source data Fig. 2B; listed as BC64C
  P. falciparum asexual growth, percentage of control: 150.2% and 111.9% and 88.57% and 84.46% and 114.9% and 73.34% and 95.38% and 91.75% and 80.98%
1.562500000 uM, 24 h, replicate values, source data Fig. 2B; listed as BC64C
  P. falciparum asexual growth, percentage of control: 126.1% and 129.8% and 105.9% and 128.7% and 121.9% and 90.74% and 123.6% and 79.12% and 103.6%
3.125000000 uM, 24 h, replicate values, source data Fig. 2B; listed as BC64C
  P. falciparum asexual growth, percentage of control: 126.5% and 121.8% and 108.8% and 133% and 55.06% and 86.31% and 120.7% and 105.6% and 95.15%
6.250000000 uM, 24 h, replicate values, source data Fig. 2B; listed as BC64C
  P. falciparum asexual growth, percentage of control: 133.8% and 98.67% and 102.2% and 109% and 94.05% and 103.7% and 108.1% and 76.85% and 81.21%
12.500000000 uM, 24 h, replicate values, source data Fig. 2B; listed as BC64C
  P. falciparum asexual growth, percentage of control: 157.5% and 116.3% and 102.8% and 135.3% and 108.6% and 85.91% and 111.9% and 81.39% and 66.81%
25.000000000 uM, 24 h, replicate values, source data Fig. 2B; listed as BC64C
  P. falciparum asexual growth, percentage of control: 149.9% and 129.1% and 105.1% and 150.2% and 115.2% and 49.33% and 125.1% and 71.79% and 57.24%
50.000000000 uM, 24 h, replicate values, source data Fig. 2B; listed as BC64C
  P. falciparum asexual growth, percentage of control: 150.4% and 131.3% and 98.75% and 124.5% and 117.8% and 89.9% and 146.3% and 135.4% and 89.26%
100.000000000 uM, 24 h, replicate values, source data Fig. 2B; listed as BC64C
  P. falciparum asexual growth, percentage of control: 78.34% and 90.49% and 98.72% and 114.4% and 78.89% and 75.44% and 171.9% and 124.7% and 104.9%
24 h
  Inhibition of parasite growth: no inhibition of parasite growth up to 100 µM
[1]
  IC50: > 200000 nM
[2]
  IC50: > 200000 nM

## CC(C)CCC[C@@H](C)[C@H]1CC[C@H]2[C@@H]3CC=C4C[C@@H](OC(=O)CCC(=O)OC(C)C)CC[C@]4(C)[C@H]3CC[C@]12C [C-3-link]
0.781250000 uM, 24 h, replicate values, source data Fig. 2B; listed as GGA3
  P. falciparum asexual growth, percentage of control: 138.2% and 69.67% and 108.2% and 127.5% and 114.2% and 69.05% and 145.4% and 89.72% and 93.86%
1.562500000 uM, 24 h, replicate values, source data Fig. 2B; listed as GGA3
  P. falciparum asexual growth, percentage of control: 130.3% and 104.4% and 98.52% and 110.7% and 113.3% and 87.62% and 145.2% and 92.88% and 49.26%
3.125000000 uM, 24 h, replicate values, source data Fig. 2B; listed as GGA3
  P. falciparum asexual growth, percentage of control: 128.1% and 110.6% (2×) and 120.7% and 130.3% and 119.8% and 103.2% and 132.9% and 71.34%
6.250000000 uM, 24 h, replicate values, source data Fig. 2B; listed as GGA3
  P. falciparum asexual growth, percentage of control: 93.75% and 68.17% and 50.04% and 136.5% and 109.3% and 87.77% and 130% and 101.8% and 92.88%
12.500000000 uM, 24 h, replicate values, source data Fig. 2B; listed as GGA3
  P. falciparum asexual growth, percentage of control: 119.7% and 70.39% and 47.65% and 137.3% and 124.9% and 51.68% and 112.4% and 101.8% and 77.92%
25.000000000 uM, 24 h, replicate values, source data Fig. 2B; listed as GGA3
  P. falciparum asexual growth, percentage of control: 123.1% and 134.3% and 128.6% and 112.3% and 97.18% and 95.88% and 133.7% and 5.942% and 77.98%
50.000000000 uM, 24 h, replicate values, source data Fig. 2B; listed as GGA3
  P. falciparum asexual growth, percentage of control: 105.1% and 133.6% and 70.07% and 116% and 103% and 74.44% and 77.73% and 97.2% and 107.5%
100.000000000 uM, 24 h, replicate values, source data Fig. 2B; listed as GGA3
  P. falciparum asexual growth, percentage of control: 147.4% and 120% and 109% and 100.9% and 90.73% and 81.6% and 95.19% and 71.65% and 81.81%
200.000000000 uM, 24 h, replicate values, source data Fig. 2B; listed as GGA3
  P. falciparum asexual growth, percentage of control: 125% and 120.9% and 88.35% and 101.9% and 79.2% and 19.96% and 163.3% and 103.1% and 105.4%
24 h
  Inhibition of parasite growth: no inhibition of parasite growth up to 200 µM
[1]
  IC50: > 200000 nM
[2]
  IC50: > 200000 nM

## CCN(CC)CCCC(C)Nc1ccnc2cc(Cl)ccc12 (centres unmarked) [Chloroquine, chloroquine, reference compound]
Plasmodium falciparum, 3D7, 24 h, read-out: IC50, P. falciparum asexual growth inhibition
  IC50: 10.9 nM
Plasmodium falciparum, 3D7, 48 h, read-out: IC50, P. falciparum asexual growth inhibition
  IC50: 9.9 nM
Plasmodium falciparum, 3D7, 72 h, read-out: IC50, P. falciparum asexual growth inhibition
  IC50: 9.7 nM

## CC(C)CCC[C@@H](C)[C@H]1CC[C@H]2[C@@H]3CC=C4C[C@@H](O)CC[C@]4(C)[C@H]3CC[C@]12C [Cholesterol, cholesterol]
Concentration 0.1953125 uM; individual replicates
  Figure 5B dose-response source data (growth, replicate values): 97.65 and 98.85 and 95.16 and 99.46 and 98.26 and 98.24 and 102.6 and 96.06 and 94.45
Concentration 0.390625 uM; individual replicates
  Figure 5B dose-response source data (growth, replicate values): 95.8 and 101 and 95.94 and 100.9 and 102.2 and 97.7 and 93.65 and 98.46 and 98.54 and 95.82 and 88.53 and 95.33 and 96.33 and 97.81 and 92.68
Concentration 0.78125 uM; individual replicates
  Figure 5B dose-response source data (growth, replicate values): 99.57 and 96.48 and 97.66 and 98.24 and 100.6 and 107.5 (2×) and 107.4 and 98.35 and 96.07 and 96.59 and 98.18 and 96.9 and 98.19 and 100.3 and 96.94 and 95.15 and 100.1 and 95.95 and 95.21 and 98.02 and 100 and 96.51
Concentration 1.5625 uM; individual replicates
  Figure 5B dose-response source data (growth, replicate values): 98.13 and 98.43 and 98.36 and 100.5 and 96.82 and 110.3 and 108.8 and 107.2 and 96.68 and 92.68 and 85.1 and 96.36 and 98.17 and 96.8 and 101.5 and 98.35 and 94.77 and 99.77 and 99.63 and 99.09 and 97.58 and 93.8 and 94.68
Concentration 3.125 uM; individual replicates
  Figure 5B dose-response source data (growth, replicate values): 99.65 and 95.37 and 96.75 and 101.4 and 107.2 and 106.1 and 106.5 and 104.9 and 98.31 and 99.02 and 98.46 and 95.92 and 100.7 and 98.47 and 104.4 and 98.86 and 101.6 and 91.05 and 95.88 and 95.01 and 101.3 and 96.56 and 97.39
Concentration 200 uM; individual replicates
  Figure 5B dose-response source data (growth, replicate values): 102.2 and 101.3 and 99.63
Concentration 400 uM; individual replicates
  Figure 5B dose-response source data (growth, replicate values): 106.3 and 99.95 and 99.03 and 90.17
[1]
  IC50: > 400000 nM
